# Measurements from a melting point compilation (Tetko et al.).
row,melting point [°C],SMILES
1,134 to 136,CC(C)S(=O)(=O)Cc1ccc(N)cc1
2,90 to 92,CC(=O)c1cccc(OCCCC(=O)O)c1
3,83 to 85,COC(=O)c1cccc(S(=O)(=O)N2CCCCC2)c1
4,199 to 201,O=C(O)Cn1c(COc2ccccc2)nc2ccccc21
5,115 to 117,Fc1ccc(NC2CCOCC2)nc1
6,54 to 56,CN(C)S(=O)(=O)c1ccc(CCl)o1
7,121 to 123,CS(=O)(=O)Nc1cc(F)ccc1N
8,172 to 174,Cc1noc(C)c1COc1ccccc1C(=O)O
9,103 to 105,CCOCc1c(C(=O)O)oc2ccccc12
10,111 to 113,NCc1ccc(-n2cncn2)cc1Cl
11,107 to 109,O=Cc1cc(-c2cccs2)cs1
12,95 to 97,CC1CC(N)=NO1 (stereo unspecified)
13,143 to 145,O=C(O)c1ccn(-c2cccc(Cl)c2)n1
14,229 to 231,CC1=NN(c2ccc(Cl)nn2)C(=O)C1
15,188 to 190,O=C(O)c1cccnc1N1CCN(Cc2cccc(Cl)c2)CC1
16,226 to 228,O=C(O)c1oc2ccccc2c1Cn1cccn1
17,111 to 113,CN(C)c1ccc(Br)c(S(=O)(=O)Cl)c1
18,130 to 132,O=C(O)CCCNS(=O)(=O)c1ccc2c(c1)CCCC2
19,200 to 202,CC1(C)CC(C=Cc2ccccn2)=Cc2c1sc(N)c2C#N
20,59 to 61,O=C(NCc1cccc(Cl)c1)c1ccc(F)cc1
21,210 to 212,Nc1ccc(C(=O)N2CCCc3ccccc32)cc1
22,219 to 221,CC1C=CC(C(=O)O)C2C(=O)N(c3ccccc3)C(=O)C12 (stereo unspecified)
23,150 to 152,NC(=O)Cn1cc(NC(=O)OCC(F)(F)F)cn1
24,159 to 161,O=C(O)C1CC(=O)N(CCN2CCOCC2)C1 (stereo unspecified)

row,melting point [°C],SMILES
1,103 to 105,Cc1nnc2ccc(Cl)nn12
2,48 to 50,COc1cc(C=O)cc(Br)c1OCc1ccccc1
3,210 to 212,CS(=O)(=O)c1cc(C(=O)O)c(Cl)cc1Cl
4,96 to 98,O=C(CBr)CS(=O)(=O)c1ccccc1
5,161 to 163,CCOc1ccc(C(=O)NN)cc1OC
6,79 to 81,CC(=O)SC(C(=O)O)c1ccccc1 (stereo unspecified)
7,179 to 181,CCOC(=O)Cc1nc2ccccc2[nH]1
8,26 to 28,CN(C)c1cccc(Cl)c1C=O
9,179 to 181,CCn1cc(S(N)(=O)=O)nc1C
10,147 to 149,CC(C)(C)n1cc(C#N)cc1NC(=O)OCC(F)(F)F
11,235 to 237,O=C(O)c1ccc(-n2cccn2)c(F)c1
12,191 to 193,Cc1ccc2[nH]c(C(=O)O)c(Cl)c2c1
13,111 to 113,COc1ccc(C(C)=O)cc1CC#N
14,115 to 117,O=S(=O)(Cl)c1ccc(Cl)c2c(Cl)cccc12
15,152 to 154,CN(C)c1ccc(N2C(=O)C=CC2=O)cc1
16,151 to 153,c1ccc2[nH]c(C3CCCCN3)cc2c1 (stereo unspecified)
17,104 to 106,O=C1CCOc2c1cc(Br)cc2[N+](=O)[O-]
18,129 to 131,O=C(O)c1occc1COc1ccccc1
19,253 to 255,N#Cc1cc2c([nH]c1=O)CCCCC2
20,104 to 106,COCc1cc(Cl)n2ncnc2n1
21,215 to 217,CC(C)CC1NC(=O)NC1=O (stereo unspecified)
22,57 to 59,CC(=O)CC(=O)NCCc1ccccc1
23,204 to 206,Nc1cc(=O)[nH][nH]1
24,174 to 176,Cc1cc(Br)cn2c(CO)cnc12

row,melting point [°C],SMILES
1,152 to 154,COc1ccc(Cc2cnc(NC(=O)CCl)s2)cc1
2,153 to 155,COc1ccc(NS(=O)(=O)Cc2ccc(N)cc2)cc1
3,130 to 132,Nc1ncn(Cc2ccccc2)n1
4,104 to 106,CN(C)S(=O)(=O)c1ccc(F)c(N)c1
5,191 to 193,Cc1ccc(S(=O)(=O)N(C)C)cc1NC(=S)NN
6,198 to 200,O=[N+]([O-])c1cnc(O)c(Cl)c1
7,83 to 85,N#Cc1ccc(Cl)nn1
8,94 to 96,Nc1ccc(S)c(Br)c1
9,97 to 99,O=C(c1ccc(S(=O)(=O)Cl)cc1)N1CCCCC1
10,253 to 255,Cc1cc(Cl)cc2nc(S)oc12
11,203 to 205,O=C(O)CSc1nncn1C1CC1
12,76 to 78,ClCc1coc(-c2cccc(Cl)c2)n1
13,161 to 163,Fc1cc2nc(Cl)ccc2cc1Br
14,142 to 144,CC(Oc1cc(Cl)cc(Cl)c1)C(=O)O (stereo unspecified)
15,114 to 116,CC(C)(C)C(N)=S
16,193 to 195,O=C(Nc1ccncc1)OCC(F)(F)F
17,197 to 199,C=CC(=O)NCc1ccc(C(=O)O)cc1
18,94 to 96,CC(C)(C(=O)O)c1ccc(Cl)c(Cl)c1
19,99 to 101,Cc1csc(Sc2ccc(N)cc2)n1
20,185 to 187,O=C(CCl)Nc1cc(-n2cnnn2)ccc1F
21,179 to 181,N#Cc1cccc(OCc2cccc(C(=O)O)c2)c1
22,271 to 272,O=c1cnc2ccccc2[nH]1
23,96 to 98,CC(NC(=O)CCC(=O)O)C(=O)c1ccccc1 (stereo unspecified)
24,101 to 103,O=C(O)Cc1cc(Cl)ccc1Br

row,melting point [°C],SMILES
1,154 to 156,O=C(O)c1cc(F)c(F)c(S(=O)(=O)Cl)c1
2,76 to 78,O=C(c1ccccc1)c1ccc(Br)cc1F
3,136 to 138,ON=Cc1csnn1
4,41 to 43,CN(C)c1cccc(N)n1
5,65 to 67,NCC1(O)CCOCC1
6,137 to 139,CC(=O)CC(=O)Nc1ccc(Br)cc1
7,224 to 226,NS(=O)(=O)c1nnc[nH]1
8,203 to 205,O=C(O)CCc1n[nH]c(=O)[nH]c1=O
9,206 to 208,O=C(O)c1cc(O)cs1
10,266 to 268,Cc1cccc(C)c1Nc1nnc(S)s1
11,128 to 130,Cc1ccc(-c2csc(=O)n2CC(=O)O)cc1
12,64 to 66,CCNC(=O)CCCl
13,310 to 312,O=C(O)c1ccc2c(c1)CC(c1ccccc1)OC2=O (stereo unspecified)
14,114 to 116,Cc1nc(CC(=O)NN)cs1
15,153 to 155,O=C(O)c1c(F)cccc1Br
16,228 to 230,CCC(=O)N1CCc2cc(C(=O)O)ccc21
17,133 to 135,O=C(CCl)Nc1cccc(S(=O)(=O)N=C2CCCCCN2)c1
18,111 to 113,O=c1[nH]nc(-c2ccco2)o1
19,79 to 81,C=CC(=O)Nc1cccc(C(F)(F)F)c1
20,134 to 136,O=C(O)CCNS(=O)(=O)c1cccc([N+](=O)[O-])c1
21,174 to 176,O=C(O)CCNS(=O)(=O)c1cccnc1Cl
22,89 to 91,CC(C)(C)OC(=O)Nc1cccc2c1OCO2
23,35 to 37,C#CC#CCCCCCC(=O)O
24,138 to 140,NS(=O)(=O)NCc1ccccn1

row,melting point [°C],SMILES
1,103 to 105,CCN(CC)S(=O)(=O)c1ccc(NC(=O)CCl)cc1
2,86 to 88,Nc1nc(-c2ccc(OC(F)F)cc2OC(F)F)cs1
3,142 to 144,O=C(O)c1ccn(-c2cccc(Br)c2)n1
4,188 to 203,O=C(O)Cn1c(SC(F)F)nc2ccccc21
5,163 to 165,CC(C)(C)c1ccc(=O)[nH]n1
6,150 to 155,COc1ccc(Cl)cc1N1CC(C(=O)O)CC1=O (stereo unspecified)
7,129 to 131,CC(=O)N1CCCC(C(=O)O)C1 (stereo unspecified)
8,281 to 283,C/C(=N\O)c1cc(C(=O)O)c[nH]c1=O
9,179 to 181,NC(=S)N1CCN(c2nccs2)CC1
10,213 to 215,O=C(O)COc1ccc2ccc(=O)oc2c1
11,250 to 254,Nn1c(S)nnc1-c1ccncc1
12,177 to 179,C=CCn1c(=O)c2ccccc2n2c(S)nnc12
13,66 to 68,FC(F)(F)c1ccc(-n2cccn2)nc1
14,184 to 186,Cc1c(C(=O)O)nnn1-c1cccc(Br)c1
15,87 to 89,O=C(O)C1CCOc2ccccc21 (stereo unspecified)
16,61 to 63,COC(=O)C(N)c1cccnc1 (stereo unspecified)
17,129 to 131,O=C(O)c1cc(CO)on1
18,55 to 58,Nc1cc(S(=O)(=O)Nc2ccc(Cl)cc2)ccc1N1CCOCC1
19,129 to 131,CCCNC(=O)C1CNc2ccccc2O1 (stereo unspecified)
20,165 to 167,O=C(O)c1ccccc1SC1CCS(=O)(=O)C1 (stereo unspecified)
21,80 to 82,NC(=S)C1CCCO1 (stereo unspecified)
22,187 to 189,CC(=O)c1cc(C#N)c(SCC(=O)O)nc1C
23,66 to 68,COC(=O)COc1ccc(N)cc1Cl
24,88 to 90,CCCOc1cccc(CC(=O)O)c1

row,melting point [°C],SMILES
1,109 to 111,CNc1cc(-c2cccc(OC)c2)[nH]n1
2,67 to 69,Nc1cccc(COc2ccc3c(c2)OCO3)c1
3,123 to 125,CNc1ncc2c(n1)-c1ccccc1SC2
4,233 to 235,CC1(C)C(=O)Nc2ccc(C(=O)CCl)cc21
5,216 to 218,O=C(NCc1ccccc1)c1ccc(-n2ccnc2S)cc1
6,209 to 211,O=C(O)c1ccc(-n2cc(Br)cn2)nn1
7,121 to 123,CCOC(=O)Cn1[nH]cc(C#N)c1=N
8,69 to 71,Cc1cc(C#N)ccc1N1CC2CCC1C2 (stereo unspecified)
9,210 to 212,NC(=O)CSc1ccccc1C(=O)O
10,198 to 200,Cc1cc(=O)[nH]c(SCC(=O)O)c1C#N
11,275 to 277,NS(=O)(=O)c1cc(C(=O)O)cc2c1CCCC2
12,60 to 62,CCOCCNC(N)=O
13,122 to 124,CCn1cc(C(=O)O)c(C(C)C)n1
14,248 to 250,CCCCc1c(C)nc2nc(S)nn2c1C
15,84 to 86,Cc1nc(-c2ccccc2)sc1CCl
16,148 to 150,N#CCc1ccc(OCC(=O)O)cc1
17,98 to 100,COc1ccc(Cn2ncc(C)c2N)cc1OC
18,85 to 87,OCc1ccc(O)c(Cl)c1
19,144 to 146,FC(F)(F)c1cccc2c(Cl)ncnc12
20,61 to 63,Cc1ccccc1COc1cccc(N)c1

row,SMILES,melting point [°C]
1,N#Cc1cc(CBr)ccc1F,44 to 46
2,O=[N+]([O-])c1ccc(N2CCNCC2)cn1,147 to 149
3,CC(O)(CN)c1ccc(F)cc1 (stereo unspecified),69 to 71
4,Cc1nn(C2CCOC2)cc1C(=O)O (stereo unspecified),163 to 165
5,CCNCC(O)c1ccc(C)cc1 (stereo unspecified),88 to 90
6,C=CCNC(=O)NC(=O)CCl,113 to 115
